Assay results reported in patent US20080081039A1, “Inorganic Selenium For Treatment Of Cancer” (priority 2004, published 2008).
Where two headings read alike, the source gives them in different places.

Columns and labels:
PC-3 cells [1] = settings: 24-72 hours
Protocol: Analysis of PC-3 growth curves were achieved by allowing 2×10^5 PC-3 cells to attach overnight. […] Supernatants and cells were then harvested, combined and viable cells assessed by Trypan Blue exclusion assay. Experiments were performed in triplicate.

PC-3 cells [2] = test: MTT growth assay; type: cell-based, human
Protocol: MTT Growth Assays involved plating 1×10^3 PC-3 cells per well in a 96 well plate and allowing the cells to attach overnight. […] The controls for this experiment received an equal volume of LY294002 diluent (DMSO). MTT growth assays were then performed according to the manufacturer's protocol (Sigma).

[3] = tested on: cell cycle regulatory proteins (cyclin D1, cdk4, cdk6, p27KIP1, p21CIP1); test: Immunoblot of cell cycle regulatory proteins in PC-3 cells; type: cell-based, human
Description: (§1) The following antibodies were obtained from Cell Signaling Technology (Beverly, Mass., USA) unless otherwise stated: anti-p27^KIP1 (bd Pharmingen), anti-p21^CIP1 , ANTI-CYCLIN d1, ANTI-CYCLIN d3, ANTI-CDK4, ANTI-CDK6, ANTI-PHOSPHO rb (Ser807/811), anti-RB, anti-phospho Akt (Ser473), anti-phospho Akt (Thre308), anti-Akt, anti-phospho PDK1 (Ser241), anti-phospho PDK1 (Tyr373/376), anti-phospho GSK-3β, anti-phospho mTOR (Ser2448), anti-mTOR, anti-βIII tubulin (Promega).
(§2) To determine the effect of selenate on the phosphorylation of proteins involved in the PI3K/Akt signaling cascade, 5×10^5 PC-3 cells were allowed to attach for 10 hours. […] Cells were lysed in ELB (250 mM NaCl, 50 mM HEPES pH 7.0, 5 mM EDTA, 0.5 mM DTT, 0.2% TX100, 20 mM sodium fluoride, 2 mM sodium pervanadate, Complete Protease Inhibitor Cocktail (Roche)). Lysates were centrifuged for 15 minutes at 4° C. Protein concentration was determined using the BCA system (Sigma) and equal amounts of protein were loaded into each lane of a SDS-polyacrylamide gel. The proteins were transferred onto PVDF (Millipore) membranes and detected with anti-mouse or anti-rabbit secondary antibodies couples to horseradish peroxidase (HRP) and chemiluminescence using the SuperSignal West Dura (Pierce). Membranes were stripped using the Restore Western Blot Stripping Buffer (Pierce).

GSK-3β = settings: 0.5 mM, various time periods
Description: as §1, §2

PDK1 = settings: 0.5 mM, out to 6 hours
Description: as §1, §2

mTOR = settings: 0.5 mM, various time periods
Description: as §1, §2

[4] = tested on: retinoblastoma protein (Rb ser807/811); settings: 0.5 mM, time-dependent
Description: as §1, §2

Akt = test: Activation of Akt by different selenium compounds in PC-3 cells, immunoblot; type: cell-based, human; settings: serum starved PC-3 cells
Description: Signal intensities from the developed films were scanned and intensities of active Akt correlated to total Akt levels were plotted.

[5] = tested on: androgen sensitive LNCaP cells; settings: for androgen sensitive NS LNCaP cell proliferation: 5 μM, 9 days
Protocol: Cells were harvested at 72 hours following addition of the compounds and cell counts of viable cells as assessed by Trypan Blue staining were determined.
Cells were harvested at the indicated periods following addition of the compounds and cell counts of viable cells as assessed by Trypan Blue staining were determined.
(§3) The parental androgen-sensitive LNCaP cell line was obtained from the American Type Culture Collection (Manassas, Va., USA) and routinely cultured in […] (Invitrogen) supplemented with 10% foetal calf serum and 1% antibiotic/antimycotic mixture (Invitrogen). Cells were maintained at 37° C. in 5% CO2. To select androgen independent LNCaP cells LNCaPs were cultured in […] (Invitrogen) in 5% Charcoal stripped serum (CSS) (Invitrogen) which has removed all detectable traces of testosterone, for 6-8 weeks and obtained LNCaP cell lines which were now able to freely proliferate in the absence of testosterone. These cells are referred to as CSS LNCaPs.
(§4) Between 5×10^4 (FIGS. 1-2) and 1×10^5 LNCaP, CSS LNCaP or Q293 cells were allowed to attach overnight. […] Supernatants and cells were then harvested, combined and viable cells assessed by Trypan Blue exclusion assay. Experiments were performed in triplicate.

[6] = tested on: androgen independent CSS LNCaP cells
Protocol: 5×10^4 human prostate cancer androgen independent CSS LNCaP cells were seeded in a 6-well dish and 8 hours later were treated with either 50 μM selenate or not (control).
as §3, §4

[7] = tested on: human kidney epithelial Q293 cells; test: Cell growth curve of Q293 cells, Trypan Blue; type: cell-based; settings: selenate 5 μM, LY294002 10 μM, 9 days
Protocol: Q293 cells are a human kidney epithelial cell line routinely cultured in DMEM media (Invitrogen) in 5% foetal calf serum and 1% antibiotic/antimycotic mixture (Invitrogen).
as §4

[8] = tested on: human prostate tumor cells; settings: in comparison to organic selenomethionine, methylselenocysteine or selenized yeast; cited from earlier work
[9] = 50 μM, 72 hours, presence or absence of androgen

SMILES: O=[Se](=O)(O)O [sodium selenate]
- PC-3 cell number (PC-3 cells [1]; doses of 0.01 to 0.1 mM): rate of increase in cell number was impeded
- PC-3 cell number (PC-3 cells [1]; doses of 0.25 and 0.5 mM): all increases in cell number were blocked
- PC-3 cell proliferation (MTT proliferative index) (PC-3 cells [2]; 0.25 and 0.5 mM, 72 hour): markedly reduced
- proliferative inhibition with added LY294002 (PC-3 cells [2]; high dose sodium selenate plus LY294002, 72 hours): not enhanced by LY294002
- PC-3 cell number (MTT) (PC-3 cells [2]; lowest dose 0.01 mM): slight, but reproducible boost in cell number
- p27KIP1 total protein levels, inorganic versus organic selenium ([3]; 0.5 mM, compared to control (0 hours), FIG. 3C): markedly boosted
- expression levels of cyclin D1 ([3]; 0.5 mM, from the 14 hour time period): dropped significantly
- cdk4 levels ([3]; 0.5 mM, out to 24 hours): peaked at 6 hours and declined in time dependent manner to 24 hours
- p21CIP1 levels ([3]; 0.5 mM, peaking at 6 hours): marked increase
- p27KIP1 levels ([3]; 0.5 mM, time-dependent till 24 hours): increased
- cdk6 levels ([3]; high dose (0.5 mM)): remained relatively unchanged
- GAK-3β phosphorylation status (GSK-3β): induced a decline
- phosphorylation status of PDK1 (ser241, tyr373/376) (PDK1): no effect
- mTOR phosphorylation status (mTOR): induced a decline
- phosphorylation of Rb (ser807/811) [4]: marked decline
- activation of Akt (phosphorylated Akt relative to total Akt) (Akt; 125 μM, 6 hours): inhibits activation of Akt
- activation of Akt at high dose (Akt; 500 μM, 1 hour): inhibited activation of Akt
- androgen sensitive NS LNCaP cell proliferation ([5]; absence of androgen (charcoal stripped serum)): synergizes with androgen ablation to markedly reduce
- androgen sensitive NS LNCaP cell proliferation ([5]; presence of androgen (normal serum)): markedly reduces
- parental LNCaP cell proliferation [5, 9]: synergizes with androgen ablation to reduce
- CSS LNCaP cell proliferation ([6]; 5 μM, 9 days, absence of androgen (charcoal stripped serum)): synergizes with androgen ablation to markedly reduce
- androgen independent CSS LNCaP cell proliferation ([6]; 5 μM, 9 days, presence of testosterone (normal serum)): markedly reduces
- sensitivity of androgen independent cells versus parental LNCaP cells ([6]; 50 μM, 72 hours): even more sensitive
- CSS LNCaP cell proliferation [6, 9]: synergizes with androgen ablation to reduce
- Q293 cell proliferation ([7]; CSS media (androgen ablation)): does not significantly effect
- Q293 cell proliferation ([7]; normal serum): does not significantly effect
- tumor progression [8]: significantly reduces tumor progression
